Reference: patent US6410566B1, “Cyclic amine derivatives and their use as drugs” (Teijin Limited, priority 2000, dated 2002)

Experiments:
[1] = molecular target: T1, binding of human MCP-1 to THP-1 cells (Homo sapiens, UniProt P41597); assay: Inhibition of binding of [125I]-labeled baculovirus expressed human MCP-1 to THP-1 cells (Method 1); conditions: for inhibition at 100 µM: Method 1, at 100 μM; for inhibition at 10 µM: Method 1, at 10 μM
T1 construct: endogenous in cells; host or cells: THP-1 (human monocytic leukemia cell line), whole cells
T1 sequence (P41597 1-360 isoform P41597-2): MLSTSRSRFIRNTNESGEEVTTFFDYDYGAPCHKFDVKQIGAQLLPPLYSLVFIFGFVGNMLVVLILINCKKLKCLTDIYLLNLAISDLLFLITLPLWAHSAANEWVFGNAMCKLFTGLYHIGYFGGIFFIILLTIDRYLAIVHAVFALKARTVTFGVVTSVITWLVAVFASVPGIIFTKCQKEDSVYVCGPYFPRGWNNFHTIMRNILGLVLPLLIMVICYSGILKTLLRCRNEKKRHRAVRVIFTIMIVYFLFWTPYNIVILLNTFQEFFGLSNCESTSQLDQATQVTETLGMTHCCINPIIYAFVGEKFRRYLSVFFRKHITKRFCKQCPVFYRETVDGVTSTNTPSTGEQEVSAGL
From the text: Measurement of Inhibition of MCP-1 Binding to THP-1 Cells 1. Construction of recombinant baculovirus carrying the human MCP-1 gene Based on the previously published human MCP-1 gene sequence (for example T. Yoshirnura et al., FEBS Lett., 1989, 244, 487-493), two synthetic DNA primers ([NT] and [NT]) flanked by restriction enzyme sites were used to amplify a DNA fragment from cDNA derived from human endothelial cells (purchased from Kurabow Co.); the amplified fragment was cut with the restriction enzymes (PstI and XbaI), ligated into a transfer vector pVL1393 (Invitrogen Co.), and the resulting vector was co-transfected along with infectious baculovirus into Sf-9 insect cells and the supernatant was plaque assayed to yield human MCP-1 gene baculovirus recombinant. […] Using the method of K. Ishii et al. […] The culture supernatant was affinity purified using a heparin Sepharose column (Pharmacia Co.) and then further purified using reverse phase HPLC (Vydac C18 column) to prepare purified human MCP-1. […] 3-1. […] The test. compound was diluted in the assay buffer and used as the test compound solution. [^125I]-labeled human MCP-1 described above was diluted in assay buffer to 1 mCi/mL and used as the labeled ligand solution. In a 96 well filter plate (Millipore Co.), 25 μL of test compound solution, 25 μL of labeled ligand solution and 50 μL of cell suspension were aliquoted into each well in this order, stirred (total reaction volume 100 μL), and incubated for one hour at 18° C. After the reaction, the reaction solution was filtered, and the filter was washed twice with 200 μL of cold PBS (200 μL of cold PBS was added and then filtered). The filter was air-dried and 25 μL of liquid sciatillator was added into each well. The radioactivity retained by the cells on the filter were measured using TopCount (Packard Instrument Co.). To calculate the ability of test compound to inhibit binding of human MCP-1 to THP-1 cells, non-specific binding determined by adding 100 ng of unlabeled human MCP-1 in place of the test compound was subtracted, while the counts with no test compound added was taken as 100%. Inhibition (%)=(1-(A-B)/(C-B))×100 (A, counts with test compound added; B, counts with 100 ng of unlabeled human MCP-1 added; C, counts with [^125I]-labeled human MCP-1 added).

[2] = tested on: THP-1 cells; assay: Inhibition of cell chemotaxis caused by MCP-1; assay type: cell-based; conditions: Homo sapiens, MCP-1 20 ng/mL, read-out: inhibition of cell migration IC50
Experimental: Measurement of Inhibition of Cell Chemotaxis
In order to determine the inhibition of cell chemotaxis by the compounds of this invention, we measured cell chemotaxis caused by monocyte chemotactic factor MCP-1 using the human monocytic leukemia cell line THP-1 as the chemotactic cell according to the method of Fall et al. (J. Immunol. Methods, 190, 33,239-247). 2×10^6 cells/mL of THP-1 cells (suspended in RPMI-1640 (Flow Laboratories Co.)+10% FCS) was placed in the upper chamber (200 μL) of a 96 well micro-chemotaxis chamber (Neuroprobe; registered tradename), and human recombinant MCP-1 in a same solution (Peprotech Co.) at a final concentration of 20 ng/mL was placed in the lower chamber, with a polycarbonate filter (PVP-free, Neuroprobe; registered tradename) placed between the two chambers. These were incubated at 37° C. for 2 hr in 5% CO2.
The filter was removed, and the cells which had migrated to the underside of the filter was fixed, stained using Diff Quick (Kokusai Shiyaku Co.) and then quantitated using a plate reader (Molecular Device Co.) at a wavelength of 550 nm to determine the index of cell migration as a mean of 3 wells. In addition, test compounds were placed in the upper and lower chambers along with THP-1 and MCP-1, respectively, and the inhibition of cell migration (inhibition IC50 (μM)) was determined.

[3] = molecular target: T1, binding of human MCP-1 to THP-1 cells; assay: Inhibition of binding of [125I]-labeled baculovirus expressed human MCP-1 to THP-1 cells (Method 2); conditions: Method 2, at 1 μM
From the text: 1. Construction of recombinant baculovirus carrying the human MCP-1 gene
Based on the previously published human MCP-1 gene sequence (for example T. Yoshirnura et al., FEBS Lett., 1989, 244, 487-493), two synthetic DNA primers (5′-[…]-3′ and 5′-[…]-3′) flanked by restriction enzyme sites were used to amplify a DNA fragment from cDNA derived from human endothelial cells (purchased from Kurabow Co.); the amplified fragment was cut with the restriction enzymes (PstI and XbaI), ligated into a transfer vector pVL1393 (Invitrogen Co.), and the resulting vector was co-transfected along with infectious baculovirus into Sf-9 insect cells and the supernatant was plaque assayed to yield human MCP-1 gene baculovirus recombinant.
2. Synthesis of [^125I]-labeled human MCP-1 expressed in baculovirus
Using the method of K. Ishii et al. (Biochem Biophys Research Communications, 1995, 206, 955-961), 5×10^6 Sf-6 insect cells was infected with 5×10^7 PFU (plaque forming units) of the above human MCP-1 recombinant baculovirus and cultured for 7 days in Ex-Cell 401 medium. The culture supernatant was affinity purified using a heparin Sepharose column (Pharmacia Co.) and then further purified using reverse phase HPLC (Vydac C18 column) to prepare purified human MCP-1. The purified human MCP-1 was protein labeled by Amersham Co. using the Bolton Hunter method to yield [^125I]-labeled baculovirus expressed human MCP-1 (specific activity 2000 Ci/mmol).
3-2. Measurement of inhibition of binding of [^125I]-labeled baculovirus expressed human MCP-1 to THP-1 cells (Method 2)
Human monocytic leukemia cell line THP-1 was suspended in assay buffer (50 mM HEPES, pH 7.4, 1.0 mM CaCl2, 5.0% mM MgCl2, 0.5% BSA) to give a cell suspension of a concentration of 1×10^7 cells/mL. The test compound was diluted in the assay buffer and used as the test compound solution. [^125I]-labeled human MCP-1 described above was diluted in assay buffer to 1 mCi/mL and used as the labeled ligand solution. In a 96 well filter plate (Millipore Co.), 25 μL of test compound solution, 25 μL of labeled ligand solution and 50 μL of cell suspension were aliquoted into each well in this order, stirred (total reaction volume 100 μL), and incubated for one hour at 18° C.
After the reaction, the reaction solution was filtered, and the filter was washed twice with 200 μL of cold PBS (200 μL of cold PBS was added and then filtered). The filter was air-dried and 25 μL of liquid scintillator was added into each well. The radioactivity retained by the cells on the filter were measured using TopCount (Packard Instrument Co.).
To calculate the ability of test compound to inhibit binding of human MCP-1 to THP-1 cells, non-specific binding determined by adding 100 ng of unlabeled human MCP-1 in place of the test compound was subtracted, while the counts with no test compound added was taken as 100%.
Inhibition (%)={1−(A−B)/(C−B)}×100
(A, counts with test compound added; B, counts with 100 ng of unlabeled human MCP-1 added; C, counts with [^125I]-labeled human MCP-1 added).

SMILES	inhibition at 100 µM [1] [%]	inhibition at 10 µM [1] [%]	IC50 [2] [nM]	inhibition at 1 µM [3] [%]
O=C(CNC(=O)Nc1ccc(C(F)(F)F)cc1)NCC1CCN(Cc2ccc(Cl)cc2)CC1 [Compound No. 852, 1-(4-Chlorobenzyl)-4-[{2-(3-(4-trifluoromethylphenyl)ureido)acetylamino}methyl]piperidine]	> 80	–	–	–
NC(=O)c1ccc(CN2CCC(CNC(=O)CNC(=O)c3cccc(C(F)(F)F)c3)CC2)cc1 [Compound No. 925, 1-(4-Carbamoylbenzyl)-4-[{N-(3-(trifluoromethyl)benzoyl)glycyl}aminomethyl]piperidine]	–	20 to 50	–	–
CN(C)c1ccc(CN2CCC(CNC(=O)CNC(=O)c3cccc(C(F)(F)F)c3)CC2)cc1 [Compound No. 937, 1-{4-(Dimethylamino)benzyl}-4-[{N-(3-(trifluoromethyl)benzoyl)glycyl}aminomethyl]piperidine]	–	50 to 80	–	–
C=Cc1ccc(CN2CC[C@@H](NC(=O)CNC(=O)c3cc(C(F)(F)F)ccc3N)C2)cc1 [Compound No. 1701, (R)-3-[{N-(2-Amino-5-(trifluoromethyl)benzoyl)glycyl}amino]-1-(4-vinylbenzyl)pyrrolidine]	–	–	< 100	> 80
COc1ccc(CN2CC[C@@H](NC(=O)CNC(=O)c3cc(OC(F)(F)F)ccc3N)C2)cc1O [Compound No. 1896, (R)-3-[{N-(2-Amino-5-trifluoromethoxybenzoyl)glycyl}amino]-1-(3-hydroxy-4-methoxybenzyl)pyrrolidine]	–	–	< 100	> 80
Nc1cc(Cl)ccc1CN1CC[C@@H](NC(=O)CNC(=O)c2cc(OC(F)(F)F)ccc2N)C1 [Compound No. 1921, (R)-3-[{N-(2-Amino-5-trifluoromethoxybenzoyl)glycyl}amino]-1-(2-amino-4-chlorobenzyl)pyrrolidine]	–	–	< 100	> 80
Cc1ccc(CN2CCC(CNC(=O)CNC(=O)c3cc(F)c(F)cc3N)CC2)cc1N [Compound No. 2114, 4-[{N-(2-Amino-4,5-difluorobenzoyl)glycyl}aminomethyl]-1-(3-amino-4-methylbenzyl)piperidine]	–	–	< 100	> 80
Nc1cc(CN2CC[C@@H](NC(=O)CNC(=O)c3cc(C(F)(F)F)ccc3N)C2)ccc1Cl [Compound No. 2132, (R)-1-(3-Amino-4-chlorobenzyl)-3-[{N-(2-amino-5-trifluoromethylbenzoyl)glycyl}amino]pyrrolidine]	–	–	< 100	> 80
Nc1cc(CN2CCC(CNC(=O)CNC(=O)c3cc(F)c(F)cc3N)CC2)ccc1O [Compound No. 2141, 4-[{N-(2-amino-4,5-difluorobenzoyl)glycyl}aminomethyl]-1-(3-amino-4-hydroxybenzyl)piperidine]	–	–	< 100	–
CNc1cc(CN2CC[C@@H](NC(=O)CNC(=O)c3cc(C(F)(F)F)ccc3N)C2)ccc1O [Compound No. 2158, (R)-3-[{N-(2-Amino-5-trifluoromethylbenzoyl)glycyl}amino]-1-(3-methylamino-4-hydroxybenzyl)pyrrolidine]	–	–	< 100	–
O=C(CNC(=O)c1cc(C(F)(F)F)cc(C(F)(F)F)c1)N[C@H]1CCN(Cc2ccc(Cl)cc2)C1 [compound 5, (S)-3-[N-{3,5-Bis (trifluoromethyl)benzoyl}glycyl]amino-1-(4-chlorobenzyl)pyrrolidine]	> 80	–	–	–
Cc1noc(C)c1CN1CC[C@@H](NC(=O)CNC(=O)c2cc(F)cc(C(F)(F)F)c2)C1 [compound 1191, (R)-3-[N-(3-Fluoro-5(trifluoromethyl)benzoyl)glycyl]amino-1-(3,5-dimethylisoxazol-4-ylmethyl)pyrrolidine]	–	–	< 100	> 80
